Measurements published in PMC6980506, “Comparative pharmacokinetics and pharmacodynamics of the advanced Retinol-Binding Protein 4 antagonist in dog and cynomolgus monkey” (PLoS ONE, 2020).
Where “and” joins values, the source holds several entries; their conditions need not be identical. Identical values can stand only once. Like-named read-outs stand apart in the source and are kept apart here.

Test: Single dose pharmacokinetic study in cynomolgus monkey
Format: in vivo
Method: Pharmacokinetic studies were conducted in male beagle dogs and male cynomolgus monkeys at SRI International, Menlo Park, CA. General procedures for animal care and housing were in accordance with the National Research Council (NRC) Guide for the Care and Use of Laboratory Animals (1996) and the Animal Welfare Standards incorporated in 9 CFR Part 3, 1991 and complied with guidelines set forth by the ARVO Animal Statement for the Use of Animals in Ophthalmic and Vision Research. During the course of the PK experiments, cynomolgus monkeys were individually housed in stainless steel primary enclosures in an AAALAC-accredited facility. Animals were fed a commercial monkey chow, and supplemental food was provided (fresh fruits, vegetables, seeds, and nuts). Reverse osmosis-purified drinking water was available at all times. Cynomolgus monkeys were maintained on a 12:12 hour light:dark cycle at the 64–84°F temperature and 30–70% humidity. Monkeys had access to enrichment opportunities (grooming devices, foraging devices, activity panels and mirrors) and were provided auditory stimuli and human interaction enrichment throughout the study. Blood samples were collected by venipuncture of a peripheral vein. Animals were acclimated to the squeeze back mechanism in their home cage by repeated, short periods of restraint during general husbandry procedures for at least 2 weeks prior to dosing. Animal were not removed from their cages for collection, and no anesthesia/analgesic agents were used for blood collection. […] For PK experiments, beagle dogs were individually housed in enclosed run (≥ 4 ft x 6 ft). Dogs were exposed to their daily ration of food, Harlan Teklad 2025C Certified Global 25% Protein Dog Diet. Water was provided from the public water supply (municipal tap water) ad libitum. Dogs were maintained on a 12:12 hour light:dark cycle at the 72–73°F temperature and 40–71% humidity. Every effort was made to minimize, if not eliminate, pain and suffering in all animals in this study. No restraining devices were used in blood collecting procedures. Dogs were gentle hand-held to restrain by trained technicians with the dogs foreleg extended for sample collection of blood from cephalic vein. Animals were awake during blood sample collection with no anesthesia/analgesic agents used, and positive reinforcement by the technician was provided following collection. […] All dogs were released back to the colony after the study was completed. Male beagle dogs and male cynomolgus monkey received a single i.v. dose of a test compound at 0.5 mg kg^−1 (dog) and 1 mg kg^−1 (monkey) or a single p.o. dose of a test compound of at 2 mg kg^−1 (dog) and 5 mg kg^−1 (monkey). The number of animals that was used in PK experiments is 3 per study group. Intravenous administration vehicle was 3% DMA/45% PEG300/12% ethanol/40% sterile water; p.o. vehicle was 2% Tween 80 in 0.9% saline. […] Blood samples were processed to plasma. Following protein extraction with acetonitrile, compound concentrations in plasma were measured by LC-MS/MS. The plasma drug level data were analyzed using WinNonlin software package; Model 201 (for i.v. bolus administration);was used for the analysis of i.v. data, and Model 200 (for extravascular administration) was used for the analysis of the p.o. data. Aliquots of pre-dose plasma samples, as well as aliquots of plasma PK samples, were used for the analysis of the plasmabiomarker, RBP4.
Administration to Non-Human Primates
II. MATERIALS AND METHODS

[1] = male, cynomolgus monkey, plasma, po, Cyno, 5.0 mg kg^−1 p.o., mean ± SD, n=3

concentration at 4 hr (male, cynomolgus monkey, plasma, po, 5 mg/kg, non-human primate, po 5 mg/kg, 4 hr, read-out: Plasma level, Individual animals): 26600 ng/mL | concentration at 4 hr (male, cynomolgus monkey, plasma, po, 5 mg/kg, non-human primate, po 5 mg/kg, 4 hr, read-out: Plasma level, Mean): 27200 ng/mL | concentration at 6 hr (male, cynomolgus monkey, plasma, po, 5 mg/kg, non-human primate, po 5 mg/kg, 6 hr, read-out: Plasma level, Individual animals): 26700 ng/mL | concentration at 6 hr (male, cynomolgus monkey, plasma, po, 5 mg/kg, non-human primate, po 5 mg/kg, 6 hr, read-out: Plasma level, Mean): 26600 ng/mL | concentration at 8 h (male, cynomolgus monkey, plasma, po, 5 mg/kg, non-human primate, po 5 mg/kg, 8 hr, read-out: Plasma level, Individual animals): 23900 ng/mL | concentration at 8 h (male, cynomolgus monkey, plasma, po, 5 mg/kg, non-human primate, po 5 mg/kg, 8 hr, read-out: Plasma level, Mean): 23900 ng/mL | concentration at 12 h (male, cynomolgus monkey, plasma, po, 5 mg/kg, non-human primate, po 5 mg/kg, 12 hr, read-out: Plasma level, Individual animals): 16700 ng/mL | concentration at 12 h (male, cynomolgus monkey, plasma, po, 5 mg/kg, non-human primate, po 5 mg/kg, 12 hr, read-out: Plasma level, Mean): 18600 ng/mL | concentration at 24 h (male, cynomolgus monkey, plasma, po, 5 mg/kg, non-human primate, po 5 mg/kg, 24 hr, read-out: Plasma level, Individual animals): 12700 ng/mL | concentration at 24 h (male, cynomolgus monkey, plasma, po, 5 mg/kg, non-human primate, po 5 mg/kg, 24 hr, read-out: Plasma level, Mean): 12500 ng/mL | concentration at 36 h (male, cynomolgus monkey, plasma, po, 5 mg/kg, non-human primate, po 5 mg/kg, 36 hr, read-out: Plasma level, Individual animals): 6800 ng/mL | concentration at 36 h (male, cynomolgus monkey, plasma, po, 5 mg/kg, non-human primate, po 5 mg/kg, 36 hr, read-out: Plasma level, Mean): 7190 ng/mL | concentration at 48 h (male, cynomolgus monkey, plasma, po, 5 mg/kg, non-human primate, po 5 mg/kg, 48 hr, read-out: Plasma level, Mean): 5380 ng/mL | AUC(0-t) [1]: 676 ± 129 µg·h/mL | Tmax [1]: 1.67 ± 0.58 h | half-life (male, cynomolgus monkey, plasma, po, Cyno, 5.0 mg kg^−1 p.o., mean ± SD, n=3, read-out: T1/2, apparent terminal half-life (converted)): 17.8 ± 4.2 h | Plasma level, Individual animals (non-human primate, iv 1.0 mg/kg, 0.0083 hr, 1 mg/kg): 11200 ng/mL and 12100 ng/mL | Plasma level, Individual animals (non-human primate, iv 1.0 mg/kg, 0.25 hr, 1 mg/kg): 10900 ng/mL and 10800 ng/mL | Plasma level, Individual animals (non-human primate, iv 1.0 mg/kg, 0.5 hr, 1 mg/kg): 10000 ng/mL and 9400 ng/mL | Plasma level, Individual animals (non-human primate, iv 1.0 mg/kg, 1 hr, 1 mg/kg): 8350 ng/mL and 9370 ng/mL | Plasma level, Individual animals (non-human primate, iv 1.0 mg/kg, 2 hr, 1 mg/kg): 7340 ng/mL and 8000 ng/mL | Plasma level, Individual animals (non-human primate, iv 1.0 mg/kg, 4 hr, 1 mg/kg): 6800 ng/mL and 7000 ng/mL | Plasma level, Individual animals (non-human primate, iv 1.0 mg/kg, 8 hr, 1 mg/kg): 5290 ng/mL and 6220 ng/mL | Plasma level, Individual animals (non-human primate, iv 1.0 mg/kg, 12 hr, 1 mg/kg): 3860 ng/mL and 6000 ng/mL | Plasma level, Individual animals (non-human primate, iv 1.0 mg/kg, 24 hr, 1 mg/kg): 2510 ng/mL and 3430 ng/mL | Plasma level, Individual animals (non-human primate, iv 1.0 mg/kg, 36 hr, 1 mg/kg): 1610 ng/mL and 1090 ng/mL and 2300 ng/mL | Plasma level, Individual animals (non-human primate, iv 1.0 mg/kg, 48 hr, 1 mg/kg): 962 ng/mL and 671 ng/mL and 1530 ng/mL | Plasma level, Mean (non-human primate, iv 1.0 mg/kg, Predose): 196 ng/mL | Plasma level, Individual animals (non-human primate, iv 1.0 mg/kg, Predose, 1 mg/kg): 132 ng/mL and 64.6 ng/mL and 392 ng/mL | Plasma level, Individual animals (non-human primate, po 5 mg/kg, 0.25 hr, 5 mg/kg): 9420 ng/mL and 14200 ng/mL | Plasma level, Individual animals (non-human primate, po 5 mg/kg, 0.5 hr, 5 mg/kg): 15200 ng/mL and 23400 ng/mL | Plasma level, Individual animals (non-human primate, po 5 mg/kg, 1 hr, 5 mg/kg): 31400 ng/mL and 33300 ng/mL | Plasma level, Individual animals (non-human primate, po 5 mg/kg, 2 hr, 5 mg/kg): 29300 ng/mL and 32000 ng/mL | Plasma level, Individual animals (non-human primate, po 5 mg/kg, 4 hr, 5 mg/kg): 25800 ng/mL and 29100 ng/mL | Plasma level, Individual animals (non-human primate, po 5 mg/kg, 6 hr, 5 mg/kg): 22400 ng/mL and 30600 ng/mL | Plasma level, Individual animals (non-human primate, po 5 mg/kg, 8 hr, 5 mg/kg): 21700 ng/mL and 26200 ng/mL | Plasma level, Individual animals (non-human primate, po 5 mg/kg, 12 hr, 5 mg/kg): 16100 ng/mL and 22900 ng/mL | Plasma level, Individual animals (non-human primate, po 5 mg/kg, 24 hr, 5 mg/kg): 9590 ng/mL and 15100 ng/mL | Plasma level, Individual animals (non-human primate, po 5 mg/kg, 36 hr, 5 mg/kg): 5230 ng/mL and 9530 ng/mL | Plasma level, Individual animals (non-human primate, po 5 mg/kg, 48 hr, 5 mg/kg): 4550 ng/mL and 2950 ng/mL and 8650 ng/mL
SMILES: Cc1cc(C(=O)O)nc(N2C[C@H]3C[C@@H](c4ccccc4C(F)(F)F)C[C@H]3C2)n1 [BPN-14136]
